Measured values taken from paper PMC4211601, “Defining the conformation of human mincle that interacts with mycobacterial trehalose dimycolate” (Glycobiology, 2014).

What follows are molecules tested against T1, human mincle CRD (Homo sapiens, UniProt Q9ULY5) (assay: competition with […]-Man31-BSA on immobilised CRD).
T1 construct: gene CLEC4E; C-terminal biotinylation tag kept; immobilised on streptavidin plates
T1 sequence (Q9ULY5 74-219): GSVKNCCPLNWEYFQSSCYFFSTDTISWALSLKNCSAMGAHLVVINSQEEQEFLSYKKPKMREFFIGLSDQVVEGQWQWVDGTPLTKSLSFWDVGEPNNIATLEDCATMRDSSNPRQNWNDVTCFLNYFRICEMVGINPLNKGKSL
Type: binding

Row | Compound | Ki
1 | CCCCCCCC(=O)OC[C@H]1O[C@H](O[C@H]2O[C@H](CO)[C@@H](O)[C@H](O)[C@H]2O)[C@H](O)[C@@H](O)[C@@H]1O [monooctanoyl trehalose] | 45 ± 4 µM
2 | CCCCCC(=O)OC[C@H]1O[C@H](O[C@H]2O[C@H](CO)[C@@H](O)[C@H](O)[C@H]2O)[C@H](O)[C@@H](O)[C@@H]1O [monohexanoate derivative] | 184 ± 6 µM
3 | CCCCCC(=O)OC[C@H]1O[C@H](O[C@H]2O[C@H](COC(=O)CCCCC)[C@@H](O)[C@H](O)[C@H]2O)[C@H](O)[C@@H](O)[C@@H]1O [dihexanoate derivative] | 12.5 µM
